According to the METLIN SMRT retention time set (Domingo-Almenara et al. 2019):

Experiment: gradient 5% acetonitrile 3 min, to 50% in 2 min, to 85% in 15 min, held 3 min, 100 µL/min
Conditions: column: Zorbax Extend-C18 2.1 x 50 mm; eluents: water / acetonitrile, 0.1% formic acid
Method in brief: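 Standards, all pure, were combined into mixtures of ~100 molecules and run at 100 μL/min on a Zorbax Extend-C18 column (2.1 × 50 mm, 1.8 μm) with water and acetonitrile, each containing 0.1% formic acid. A coupled quadrupole time-of-flight mass spectrometer operated in positive and negative ionization mode. Retention time values come from computationally picked adduct peaks, each inspected manually.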

Row | RP-LC retention time | Compound
1 | 949 s | CCSc1nnc(-c2nn(C)c3c2CN(S(=O)(=O)c2cc(F)ccc2F)CC3)n1CC
2 | 1200 s | C=CCn1nnc(NCc2ccc(-c3ccc(Br)cc3Br)o2)n1
3 | 738 s | CCC(=O)Nc1ccc2c(c1)CN(C(=O)c1ccc(Cl)cc1)C(C(=O)N1CCCC1)C2 (stereo not given)
4 | 660 s | Cc1n[nH]c(C)c1S(=O)(=O)N1CCC(c2nnc(-c3ccco3)s2)CC1
5 | 657 s | Cc1cc(=O)n(CC(=O)NCc2ccc(F)cc2F)c(N2CCCCC2)n1
6 | 659 s | COc1ccc(Nc2c(-c3ccc(OC)cc3)nc3ncccn23)cc1
7 | 638 s | Cc1ccc(-c2cc(C(=O)N3CCN(c4ccc(N5CCOCC5)nn4)CC3)[nH]n2)c(C)c1
8 | 662 s | O=C(Nc1cccc(Cl)c1F)N1CC(F)(F)C[C@H]1CN1CCCC1
9 | 794 s | Cc1ccc(NC(=O)C2CCCN2S(=O)(=O)c2cc3c(cc2C)NC(=O)CO3)cc1C (stereo not given)
10 | 814 s | O=C1CCCc2cc(S(=O)(=O)N3CCC(C(=O)NC4CCCCCCC4)CC3)ccc2N1
11 | 753 s | CSc1cccc(NC(=O)Cc2nnc(-c3ccc4ncccc4c3)o2)c1
12 | 731 s | Cc1ccc(-c2nc3ccccn3c2Nc2ccccc2C)cc1
13 | 735 s | O=C(NC1CCN(c2cc(-c3ccc(F)cc3)[nH]n2)C1)c1cccc(F)c1 (stereo not given)
14 | 968 s | Cc1ccc(-c2nc(-c3ccc4nnn(C)c4c3)no2)cc1
15 | 1280 s | O=S(=O)(NC1CCCCC1)c1ccccc1-c1nc(-c2ccccc2)no1
16 | 684 s | Cc1noc(CNC(=O)CSCc2ccccc2)n1
17 | 985 s | Cc1cccc(OCc2nc(-c3ccc4nnn(C)c4c3)no2)c1
18 | 670 s | Cc1ccccc1-c1noc(-c2cccnc2N2CCN(C)CC2)n1
19 | 666 s | CCOC(=O)c1cccc(Nc2c(C(=O)N3CCC(C)CC3)cnc3nc(C)ccc23)c1
20 | 880 s | Cc1noc(-c2ccc(OC3CN(C(=O)NCCc4ccccc4)C3)cc2)n1
21 | 708 s | O=c1ccc(-n2cccn2)nn1CCNS(=O)(=O)c1ccc(Cl)s1
22 | 691 s | CC(C)n1c(SCC(=O)N(C)C)nnc1-c1ccc2c(c1)OCCCO2
23 | 780 s | CCOCN(C(=O)Cn1c(CC)nc2ccccc21)c1c(C)cccc1CC

Row | RP-LC retention time | Compound
24 | 804 s | CCC(Oc1ccc(=O)n(-c2ccc(F)cc2)n1)C(=O)NCCC(C)C (stereo not given)
25 | 684 s | Cc1ccc2nc(CN3CCN(C(=O)Nc4ccc5c(c4)OCO5)CC3)oc2c1
26 | 1110 s | Cc1ccc(N2CC(c3noc(-c4ccc(Cl)cc4)n3)CC2=O)cc1 (stereo not given)
27 | 822 s | COC(=O)c1c(NCc2ccc(F)cc2F)c2cccc(Cl)c2[nH]c1=O
28 | 951 s | C=Cc1ccc(CN2N=C(C(=O)N3CCOCC3)S(=O)(=O)c3ccc(Cl)cc32)cc1
29 | 1060 s | O=C(c1noc2ccc(S(=O)(=O)N3CCCc4ccccc43)cc12)N1CCCC1
30 | 924 s | COc1cccc(-c2cc(=O)n3c4ccccc4n(CC(=O)Nc4ccc5c(c4)OCO5)c3n2)c1
31 | 609 s | Cc1cc(N2CCCCCC2)n2nc(CN3CCCCC3C)nc2n1 (stereo not given)
32 | 775 s | O=C(Nc1sc2c(c1C(c1ccccn1)N1CCN(c3ccccn3)CC1)CCCC2)c1ccco1 (stereo not given)
33 | 720 s | COCCC(=O)N1CCCN(C2=NS(=O)(=O)C(c3ccc(C)cc3)=C2C)CC1
34 | 562 s | CCc1ccccc1NC(=O)C(=O)NCC1CCN(CCOC)CC1
35 | 691 s | COc1ccc(CNC(=O)NCc2cccnc2OC)cc1
36 | 1080 s | O=S(=O)(Cc1ccccc1)N1CCC(Cc2nncn2-c2ccccc2)CC1
37 | 835 s | Cc1ccccc1NC(=O)C1CCCN(c2ccc3cc(S(=O)(=O)N4CCCCC4)ccc3n2)C1 (stereo not given)
38 | 668 s | c1ccc(-c2noc(N3CCN(c4ccccn4)CC3)n2)cc1
39 | 1310 s | CCn1nccc1-c1cccc(-c2noc(-c3ccc(C)cc3)n2)c1
40 | 688 s | CCNC(=O)N1CC(Oc2ccc(-c3nc(C)no3)cc2)C1
41 | 1030 s | CCCn1cc(CCNS(=O)(=O)c2ccc3c(c2)CCCC3)c2cccnc21
42 | 594 s | CCCNc1cc(N2CCC(CCC(=O)NCc3c(C)nn(C)c3C)CC2)ncn1
43 | 653 s | O=C(NCc1cc(F)ccc1F)C1CCN(c2cncnc2N2CCCC2)CC1
44 | 645 s | CN1C(=O)c2ccccc2Sc2ccc(NC(=O)N3CCN(c4ccccn4)CC3)cc21
45 | 649 s | CCSc1ccccc1C(=O)N1CCN(c2ccc(-c3ccccn3)nn2)CC1
46 | 603 s | O=C(NCC(c1ccco1)N1CCN(c2ccc(F)cc2)CC1)c1ccsc1 (stereo not given)

Row | RP-LC retention time | Compound
47 | 587 s | COCc1ncc(C)n1CCNC(=O)NC1CCCCC1
48 | 604 s | CCN1CCCC1CNC(=O)Cn1ncn2nc(-c3ccccc3)cc2c1=O (stereo not given)
49 | 1200 s | COc1cccc(C2Cn3nnc(-c4nc(-c5ccc(SC)cc5)no4)c3CO2)c1 (stereo not given)
50 | 801 s | CCC(C(=O)N1CCN(C(=O)c2ccco2)CC1)n1c2ccccc2c2cnn(C)c(=O)c21 (stereo not given)
51 | 965 s | COc1ccc(C(=O)N2CCc3cc(-c4csc(C)n4)ccc32)c(OC)c1
52 | 685 s | CC(=O)Nc1nc(-c2ccc3c(c2)NC(=O)C(C)O3)cs1 (stereo not given)
53 | 699 s | CCCNc1c(C(=O)OC)c(=O)[nH]c2ccc(F)cc12
54 | 1190 s | Cn1c(=O)n(C)c2cc(CNc3ccc(O)cc3)ccc21
55 | 649 s | CC(=O)Nc1c(C)cc(OCC(=O)O)cc1C
56 | 851 s | Cc1ccccc1CNC1=NCCNC12CCN(S(=O)(=O)c1ccc3c(c1)CCCC3)CC2
57 | 1050 s | CCCCN1C(=O)C(C)(C(=O)NCc2ccccc2C)Oc2cccnc21 (stereo not given)
58 | 686 s | CC1=C(c2cccc(Br)c2)S(=O)(=O)N=C1N1CCN(c2ccccn2)CC1
59 | 725 s | COc1ccccc1-c1noc(C2CCCN2C(=O)c2ccccn2)n1 (stereo not given)
60 | 671 s | Cc1cc(NC(=O)C2CCN(C(=O)c3cc(-c4ccc5c(c4)OCO5)n[nH]3)CC2)no1
61 | 791 s | O=C(Nc1ccc(Cl)c(N2CCCS2(=O)=O)c1)c1ccccc1C(F)(F)F
62 | 754 s | O=C(NCc1cccc(C(F)(F)F)c1)C1CCN(c2cnc3nccnc3c2)CC1
63 | 739 s | CSc1ccc(-c2nc3ccc(C)cn3c2Nc2ccc3c(c2)OCO3)cc1
64 | 640 s | O=C([C@@H]1C[C@H](Oc2cccnc2)CN1C(=O)CCC1CCCC1)N1CCCC1
65 | 855 s | COc1ccc(C(=O)NC2(c3nc(C)no3)CCCCC2)c(C)c1
66 | 919 s | Cc1cccc(C)c1Nc1c(-c2ccc(Cl)cc2)nc2ncccn12
67 | 808 s | CCOC(=O)c1c(C)[nH]c(C(=O)N2CCCC(C(=O)NCCc3c[nH]c4ccccc34)C2)c1C (stereo not given)
68 | 797 s | CCC(=O)N1c2ccccc2NC2=C(C(=O)CC(C)(C)C2)C1c1ccc(C#N)cc1 (stereo not given)
69 | 715 s | O=C(Cn1nc2c(N3CCCCCC3)nccn2c1=O)Nc1ccc(F)cc1

Row | RP-LC retention time | Compound
70 | 991 s | CCS(=O)(=O)c1ccc2c(c1)N(Cc1nc(-c3ccc(OC(C)C)cc3)no1)C(=O)CO2
71 | 721 s | Cc1cccc(-c2ncccc2CNS(=O)(=O)c2cccc(C)c2)c1
72 | 772 s | Cc1ccc(C)c(NC(=O)Cn2c(N3CCC(C)CC3)nc(C)cc2=O)c1
73 | 1010 s | NS(=O)(=O)c1ccc(NC2(C(=O)O)CCCC2)cc1
74 | 916 s | Cc1ccc(S(=O)(=O)N2CCC(c3nc(-c4ccccn4)no3)CC2)cc1
75 | 853 s | O=C(Cc1ccc(Cl)cc1)NC1CCN(c2ccc(F)cc2)C1=O (stereo not given)
76 | 1060 s | Cc1ccc(C(=O)Nc2nccnc2C(=O)NC(C)c2ccc(F)cc2)cc1 (stereo not given)
77 | 905 s | O=C(CC1OC(=O)c2ccccc21)c1ccc(Br)cc1 (stereo not given)
78 | 978 s | COc1cc(NC(=O)Nc2nccn(-c3cccc(Cl)c3)c2=O)cc(OC)c1
79 | 925 s | CC(C)(C)NC(=O)N(Cc1ccsc1)CC(F)(F)F
80 | 626 s | Cc1ccnc(NS(=O)(=O)c2ccc(NC(=O)c3ccc4ncsc4c3)cc2)n1
81 | 666 s | CS(=O)(=O)N(C1CCOCC1)C1CN(C(=O)Nc2ccccc2)C1
82 | 951 s | O=C(NC(C(=O)N1CCCc2ccccc21)c1ccccc1)C1CC(=O)N(c2ccccc2)C1 (stereo not given)
83 | 853 s | CCOCCCNC(=O)c1ccc(OCc2nnc(C(=O)Nc3ccccc3F)s2)cc1
84 | 1060 s | CCOC(=O)N1CCC(NC(=O)c2cc3sccc3n2Cc2ccc(Cl)cc2)CC1
85 | 680 s | O=C(Cn1c(-c2cccs2)cc2cc(F)ccc21)NCCN1CCOCC1
86 | 750 s | CC1(C)COCN1S(=O)(=O)c1ccc(C(=O)Nc2nnc(-c3cccs3)o2)cc1
87 | 797 s | CC(C)c1ccc(NC(=O)C2CCN(S(=O)(=O)c3cn(C)cn3)CC2)cc1
88 | 1030 s | CCOc1ccc(NC(=O)c2cnn(-c3ccc(Br)cc3)c2)cc1
89 | 1130 s | CC(C)(C)CC(=O)Nc1cnc(-c2ccc(Cl)cc2)nc1
90 | 932 s | CCn1c(=O)sc2cc(S(=O)(=O)N3CCC(C(=O)Nc4cc(C)ccc4C)CC3)ccc21
